Experimental data published in ChEMBL document CHEMBL1201862, “PubChem BioAssay data set” (2004).
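Cultured in 96-well plates, cells were exposed to test compound for 48 hours across five concentrations. At the GI50, growth is halved.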 Activity calls are given as the source filed them. No stated cut-off is given here; in the data, active = GI50 up to about 1.1 µM and inactive = higher.

Assays:
Assay in all cases: DTP human tumour cell line panel, 48 h
RPMI-8226 = system: RPMI-8226
UO-31 = system: UO-31
HOP-62 = system: HOP-62
SNB-19 = system: SNB-19
EKVX = system: EKVX
HCT-116 = system: HCT-116
NCI-H23 = system: NCI-H23
T47D = system: T47D
SW-620 = system: SW-620
LOX IMVI = system: LOX IMVI
U-251 = system: U-251
SF-539 = system: SF-539
Malme-3M = system: Malme-3M
OVCAR-4 = system: OVCAR-4
NCI-H460 = system: NCI-H460
786-0 = system: 786-0
DU-145 = system: DU-145
KM12 = system: KM12
PC-3 = system: PC-3
SN12C = system: SN12C
OVCAR-3 = system: OVCAR-3
UACC-62 = system: UACC-62
SK-OV-3 = system: SK-OV-3
SR = system: SR
HCT-15 = system: HCT-15
SNB-75 = system: SNB-75
TK-10 = system: TK-10
A549 = system: A549
HCC 2998 = system: HCC 2998
M14 = system: M14
ACHN = system: ACHN
K562 = system: K562
SK-MEL-5 = system: SK-MEL-5
MDA-MB-231 = system: MDA-MB-231
MOLT-4 = system: MOLT-4
HT-29 = system: HT-29
MCF7 = system: MCF7
OVCAR-5 = system: OVCAR-5
SK-MEL-2 = system: SK-MEL-2
SF-268 = system: SF-268
UACC-257 = system: UACC-257
Hs-578T = system: Hs-578T
OVCAR-8 = system: OVCAR-8
IGROV-1 = system: IGROV-1
COLO 205 = system: COLO 205
SK-MEL-28 = system: SK-MEL-28
BT-549 = system: BT-549
NCI-H522 = system: NCI-H522
MDA-MB-435 = system: MDA-MB-435
NCI/ADR-RES = system: NCI/ADR-RES
NCI-H226 = system: NCI-H226
RXF 393 = system: RXF 393
SF-295 = system: SF-295
CAKI-1 = system: CAKI-1
MDA-N = system: MDA-N
CCRF-CEM = system: CCRF-CEM

Measured: GI50

CCCCn1c(C)c(C)c2c1NN=C(C#N)S2(=O)=O
inactive: RPMI-8226 > 100 µM | UO-31 > 100 µM | HOP-62 > 100 µM | SNB-19 > 100 µM | EKVX > 100 µM | HCT-116 > 100 µM | NCI-H23 > 100 µM | T47D > 100 µM | SW-620 > 100 µM | LOX IMVI > 100 µM | U-251 > 100 µM | SF-539 > 100 µM | Malme-3M > 100 µM | OVCAR-4 > 100 µM | NCI-H460 > 100 µM | 786-0 > 100 µM | DU-145 > 100 µM | KM12 > 100 µM | PC-3 > 100 µM | SN12C > 100 µM | OVCAR-3 > 100 µM | UACC-62 > 100 µM | SK-OV-3 > 100 µM | SR 75 µM | SNB-75 > 100 µM | TK-10 > 100 µM | A549 > 100 µM | HCC 2998 > 100 µM | M14 > 100 µM | ACHN > 100 µM | K562 > 100 µM | SK-MEL-5 > 100 µM | MDA-MB-231 > 100 µM | MOLT-4 > 100 µM | HT-29 > 100 µM | MCF7 > 100 µM | OVCAR-5 > 100 µM | SK-MEL-2 > 100 µM | SF-268 > 100 µM | UACC-257 > 100 µM | Hs-578T > 100 µM | OVCAR-8 > 100 µM | IGROV-1 > 100 µM | COLO 205 > 100 µM | SK-MEL-28 > 100 µM | BT-549 > 100 µM | NCI-H522 64.7 µM | MDA-MB-435 > 100 µM | NCI/ADR-RES > 100 µM
> 100 µM: HCT-15

CC(C)=CCC/C(C)=C/CCC(C(=O)COCc1ccccc1)P1(=O)OC(C)(C)CN1C(C)(C)C (stereo unspecified)
48.6 µM: HCT-15
inactive: UO-31 50.4 µM | HOP-62 > 100 µM | SNB-19 > 100 µM | EKVX > 100 µM | HCT-116 33.1 µM | NCI-H23 86.5 µM | T47D 31.8 µM | SW-620 > 100 µM | LOX IMVI 27.5 µM | U-251 > 100 µM | NCI-H226 30.6 µM | SF-539 > 100 µM | OVCAR-4 23.9 µM | RXF 393 87.5 µM | NCI-H460 52.2 µM | 786-0 48.3 µM | DU-145 81.7 µM | KM12 36 µM | PC-3 39.3 µM | SN12C > 100 µM | OVCAR-3 37.6 µM | SF-295 46.6 µM | UACC-62 > 100 µM | SK-OV-3 > 100 µM | SR 21.8 µM | SNB-75 28.9 µM | TK-10 > 100 µM | A549 35.6 µM | M14 93.5 µM | ACHN > 100 µM | K562 31.9 µM | SK-MEL-5 47.6 µM | MDA-MB-231 > 100 µM | CAKI-1 > 100 µM | MDA-N > 100 µM | MOLT-4 15.9 µM | HT-29 33.2 µM | MCF7 33.8 µM | OVCAR-5 > 100 µM | SK-MEL-2 35.5 µM | CCRF-CEM 30.6 µM | SF-268 33.1 µM | UACC-257 84.1 µM | IGROV-1 91.4 µM | COLO 205 42.2 µM | SK-MEL-28 62.1 µM | BT-549 > 100 µM | NCI-H522 32.6 µM | MDA-MB-435 51.4 µM | NCI/ADR-RES 31.5 µM
